# Paper PMC9666459, “Crystal structure of semi-synthetic obelin-v after calcium induced bioluminescence implies coelenteramine as the main reaction product” (Scientific Reports, 2022)
# Columns and labels:
# [1] = biological target: T1, obelin (apo-obelin; obelin-v when charged with CTZ-v) (Obelia longissima, UniProt Q27709); experiment: charging of apo-obelin, Ca2+ discharge, then fluorescence of discharged protein; type: biochemical; conditions: O2, Ca2+; charging overnight with twofold molar excess in 5 mM EDTA, 10 mM DTT, 20 mM Tris-HCl pH 7.2, 4 °C
# T1 construct: Ca2+-discharged form; two molecules per asymmetric unit
# T1 sequence (Q27709 1-195): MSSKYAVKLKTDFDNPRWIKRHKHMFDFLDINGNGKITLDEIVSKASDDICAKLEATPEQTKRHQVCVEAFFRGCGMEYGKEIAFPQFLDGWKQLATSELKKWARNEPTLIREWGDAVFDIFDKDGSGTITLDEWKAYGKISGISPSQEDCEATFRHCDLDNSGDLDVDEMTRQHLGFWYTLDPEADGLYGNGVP
# [2] = biological target: T1, obelin (apo-obelin; obelin-v when charged with CTZ-v); experiment: charging of apo-obelin, Ca2+ discharge, then fluorescence and structure of discharged protein; type: biochemical; conditions: O2, Ca2+; charging overnight with twofold molar excess in 5 mM EDTA, 10 mM DTT, 20 mM Tris-HCl pH 7.2, 4 °C
Structure (SMILES),"charging of apo-obelin, Ca2+ discharge, then fluorescence of discharged protein [1]","charging of apo-obelin, Ca2+ discharge, then fluorescence and structure of disch [2]"
Oc1ccc(Cc2nc3c(Cc4ccccc4)nc(-c4ccc(O)cc4)cn3c2O)cc1 [CTZ],apo-obelin was incubated overnight with a twofold molar excess of CTZ or CTZ-v,–
O=c1c(Cc2ccc(O)cc2)nc2c(Cc3ccccc3)[nH]c3c4ccc(O)cc4ccc3n1-2 [CTZ-v],–,apo-obelin was incubated overnight with a twofold molar excess of CTZ or CTZ-v
